Reference: article PMC4603724 (ACS Medicinal Chemistry Letters, 2015)

Molecular target: protein disulfide isomerase (PDI) (Homo sapiens, UniProt P07237)
Assay: 1H-15N HSQC NMR chemical shift perturbation
Type: binding

Sequence of protein disulfide isomerase (PDI) (P07237 18-137): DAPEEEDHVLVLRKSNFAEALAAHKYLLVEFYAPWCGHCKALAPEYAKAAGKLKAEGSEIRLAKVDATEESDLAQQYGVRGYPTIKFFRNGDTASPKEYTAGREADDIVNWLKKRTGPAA

O=C1C=C2C=C[C@@H]3C[C@@]2(O1)[C@H]1CCCCN31 [IBS141, securinine]
Kd: 758 ± 129 µM
